# Results taken from patent US20090169643A1, “Composition for Enhancing Immune Function” (priority 2006, published 2009).
# Experiments:
# [1] = test system: spleen cell suspension of immunocompetent cells; test: Metabolic activity of mouse immunocompetent cells (WST-1 formazan, 48 h culture), Test Example 1; type: cell-based, Balb/c mice
# Description: Zinc was used in the form of zinc sulfate dissolved in distilled water. Spleens were aseptically harvested from ten-week-old female Balb/c mice, teased in RPMI1640 culture medium (GIBCO) supplemented with streptomycin and penicillin (SIGMA), and then passed through a #200 mesh screen to obtain spleen cell suspension of immunocompetent cells. After counting the cells in the spleen cell suspension with an automatic blood cell counter (Sysmex Corporation: type CDA-500), the suspension was adjusted to a concentration of 1×10^7 cells/ml in the above-mentioned RPMI1640 culture medium and plated in a volume of 50 μl per well into a 96-well culture plate. Concanavalin A (SIGMA), a cell-growth stimulating factor, was dissolved in the above-mentioned RPMI1640 culture medium, and 50 μl of the Concanavalin A solution was added to the cell suspension in each well to give a final concentration of 2.0 μg/ml. Additionally, zinc and nigerooligosaccharide were separately dissolved in the above-mentioned RPMI1640 culture medium. […] The formazan concentration was determined from absorbance at a measurement wavelength of 415 nm (reference wavelength of 630 nm) using a microplate reader (Corona Electric Co., Ltd.: Type MTP-32). The values in Table 1 represent absorbance at 415 nm as means±SD of triplicate wells. […]
# [2] = test system: spleen cell suspension of immunocompetent cells; test: Metabolic activity of mouse immunocompetent cells during prolonged culture (WST-1 formazan, 144 h), Test Example 2; type: cell-based, Balb/c mice; conditions: for absorbance at 415 nm (formazan, index of metabolic activity): nigerooligosaccharide 0 ng/ml, Concanavalin A 0.4 μl/ml, 144 hours, mean of triplicate to hexylicate wells
# Method: In this Test Example, the effect of the combined use of nigerooligosaccharide and zinc on the metabolic activity of immunocompetent cells during prolonged culture was assessed using nigerooligosaccharide and zinc in the same manner as Test Example 1. Spleens were aseptically harvested from ten-week-old female Balb/c mice, teased in RPMI1640 culture medium (GIBCO) supplemented with streptomycin and penicillin (SIGMA), and then passed through a #200 mesh screen to obtain spleen cell suspension of immunocompetent cells. After counting the cells in the spleen cell suspension with an automatic blood cell counter (Sysmex Corporation: type CDA-500), the suspension was adjusted to a concentration of 1×10^7 cells/ml in the above-mentioned RPMI1640 culture medium and plated in a volume of 50 μl per well into a 96-well culture plate. Concanavalin A (SIGMA), a cell-growth stimulating factor, was dissolved in the above-mentioned RPMI1640 culture medium, and 50 μl of the Concanavalin A solution was added to the cell suspension in each well to give a final concentration of 0.4 μl/ml. Additionally, zinc and nigerooligosaccharide were separately dissolved in the above-mentioned RPMI1640 culture medium. 50 μl of the zinc solution was added to each well to give a final concentration of 0, 1 or 2 ng/ml, and similarly, 50 μl of the nigerooligosaccharide solution was added to each well to give a final concentration of 0 or 1000 ng/ml. Thus-prepared immunocompetent cells were cultured in an incubator with 5% CO2 at 37° C. for 144 hours. […] The formazan concentration was determined from absorbance at a measurement wavelength of 415 nm (reference wavelength of 630 nm) using a microplate reader (Corona Electric Co., Ltd.: Type MTP-32).
# The values in Table 2 represent absorbance at 415 nm as means of triplicate to hexylicate wells.
# [3] = test system: human peripheral mononuclear cells; test: Metabolic activity of human peripheral mononuclear cells (WST-1 formazan, 48 h culture), Test Example 3; type: cell-based
# Method: In the same manner as in Test Example 1, the synergic effect of nigerooligosaccharide and zinc on the metabolic activity of human peripheral mononuclear cells was assessed using nigerooligosaccharide and zinc. After 20 ml of blood collected from each healthy male adult was diluted 2-fold with calcium- and magnesium-free phosphate buffered saline (PBS), the diluted blood sample was overlaid onto 30 ml of a Ficoll-Paque PLUS (GE Healthcare Bio-Sciences) layer so gently as not to disturb the interface, followed by centrifugation at 400×g at 20° C. for 40 minutes. After the centrifugation, lymphocytes and monocytes present in the intermediate layer were carefully collected in a Pasteur pipette. The collected cell suspension was washed with 10-fold PBS twice. After the obtained mononuclear cells were counted with an automatic blood cell counter (Sysmex Corporation: type CDA-500), the suspension was adjusted to a concentration of 2×10^6 cells/ml in RPMI1640 culture medium supplemented with 10% fetal bovine serum, streptomycin and penicillin, and plated in a volume of 50 μl per well into a 96-well culture plate. […] The formazan concentration was determined from absorbance at a measurement wavelength of 415 nm (reference wavelength of 630 nm) using a microplate reader (Corona Electric Co., Ltd.: Type MTP-32).
# The values in Table 3 represent absorbance at 415 nm as means±SD of triplicate wells. […]
smiles,measurement,setting,value
"O=S(=O)([O-])[O-].[Zn+2] [zinc, zinc sulfate]",metabolic activity of mouse immunocompetent cells (in words),"[1]; summary of Table 1, 48 hours culture",hardly raised the metabolic activity
same,"absorbance at 415 nm (formazan, index of metabolic activity)","[1]; zinc 1 ng/ml, nigerooligosaccharide 0 ng/ml, Concanavalin A 2.0 μg/ml, 48 hours, mean±SD of triplicate wells",0.815 ± 0.013
same,metabolic activity of mouse immunocompetent cells during prolonged culture (in words),"[2]; summary of Table 2, 144 hours culture, proportion 1:1000 or 1:500",hardly raised the metabolic activity
same,"absorbance at 415 nm (formazan, index of metabolic activity)",[2]; zinc 1 ng/ml,0.793
same,"absorbance at 415 nm (formazan, index of metabolic activity)",[2]; zinc 2 ng/ml,0.786
same,metabolic activity of human immunocompetent cells (in words),"[3]; summary of Table 3, proportion 1:1000",hardly raised the metabolic activity
same,"absorbance at 415 nm (formazan, index of metabolic activity)","[3]; zinc 10 ng/ml, nigerooligosaccharide 0 μg/ml, Concanavalin A 2.0 μg/ml, 48 hours, mean±SD of triplicate wells",0.348 ± 0.003
